# Source: patent US10563214B2, “Use of micropeptides for promoting plant growth” (UNIVERSITE TOULOUSE III-PAUL SABATIER, priority 2014, dated 2020)
# Entries after “also recorded” stand apart in the source; their conditions may differ.
# How the values were obtained:
# miR164a = test: Northern blot analysis of the accumulation of miR164a in roots treated with synthetic peptide; type: in vivo, Arabidopsis thaliana; details: 0.1 μM synthetic peptide solubilized in water vs water control, U6 loading control, FIG. 1
# Procedure: The photographs show the results of a Northern blot analysis of the accumulation of miR164a in roots treated with water (control, photograph on the left) or with 0.1 μM of a synthetic peptide, having a sequence identical to that of miPEP164a, solubilized in water (0.1 μM miPEP164a). The RNA U6 is used as a loading control, allowing the quantity of miR164a to be quantified.
# The A. thaliana Col-0 plants are cultivated on MS basic medium supplemented with 10 g/l of sucrose.
# Northern blot analysis was carried out according to the protocol described in Lauressergues et al. Plant J, 72(3):512-22, 2012.
# The biological samples were homogenized in a buffer containing 0.1 M of NaCl, 2% SDS, 50 mM of Tris-HCl (pH 9), 10 mM of EDTA (pH 8) and 20 mM of mercaptoethanol, and the RNA was extracted twice with a phenol/chloroform mixture and precipitated with ethanol.
# The RNA was loaded on PAGE 15% gel and transferred onto a nylon membrane (HybondNX, Amersham). The RNA was hybridized with an oligonucleotide probe, with radioactive labelling at its end, for detecting the RNA U6 or for miR164a.
# The hybridizations were carried out at 55° C. The hybridization signals were quantified using a phosphorimager (Fuji) and normalized with the signal of the probe specific to the RNA U6.
# Arabidopsis thaliana [1] = test: A. thaliana growth test, watering with miPEP164a; type: in vivo; details: watered and sprayed
# Procedure: Watering was carried out every 2-3 days with water for the control plants and with water containing 0.1 μM or 1 μM of synthetic peptide (the sequence of which is identical to miPEP164a or to miPEP165a) for the test plants.
# Arabidopsis thaliana [2] = test: A. thaliana growth test, watering and spraying with miPEP319a; type: in vivo; details: 0.1 μM synthetic peptide, watered and sprayed, after 3 weeks of growth vs water control; FIG. 8
# Procedure: Arabidopsis thaliana seeds were germinated on GiFi, and then were transferred onto compost and were grown for 3 weeks.
# Watering was carried out every 2-3 days and spraying was carried out every day, with water for the control plants and with water containing 0.1 μM of synthetic peptide (the sequence of which is identical to miPEP319a) for the test plants.
# AtmiR319a = test: qPCR of AtmiR319a relative expression in plants overexpressing AtmiPEP319a; type: in vivo, Arabidopsis thaliana; details: plant overexpressing AtmiPEP319a (35S promoter) vs control plant; n=10; FIG. 7
# Procedure: The error bar corresponds to the standard error of the mean (number of individuals=10).
# The RNA was extracted using the reagent Tri-Reagent (MRC) according to the manufacturer's instructions, apart from precipitation of the RNA, which was carried out with 3 volumes of ethanol. Reverse transcription of the RNA was carried out using the stem-loop specific primer RTprimer in combination with hexamers in order to carry out reverse transcription of RNA of high molecular weight. Briefly, 1 μg of RNA was added to the stem-loop specific primer (0.2 μM), hexamer (500 ng), buffer RT (1×), the enzyme SuperScript Reverse transcriptase (SSIII) (one unit), dNTPs (0.2 mM each), DTT (0.8 mM) in a final reaction mixture of 25 μl. In order to carry out the reverse transcription, a pulsed reverse transcription reaction was carried out (40 repetitions of the following cycle: 16° C. for 2 minutes, 42° C. for one minute and 50° C. for one second, followed by final inactivation of the reverse transcription at 85° C. for 5 minutes).
# The total RNA of the roots of M. truncatula or of the leaves of tobacco was extracted using the extraction kit RNeasy Plant Mini Kit (Qiagen). Reverse transcription was carried out using the reverse transcriptase SuperScript II (Invitrogen) starting from 500 ng of total RNA. Three repetitions (n=3) were carried out, each with two technical repetitions. […]
# [3] = 1 μM synthetic peptide, after 39 days of growth vs water control, FIG. 3
substance,measurement,setting,value
"miPEP164a: Peptide encoded by miORF on pri-miR164a of A. thaliana, SEQ ID NO: 2, MPSWHGMVLLPYVKHTHASTHTHTHNIYGCACELVFH (listed as Arabidopsis thaliana)",accumulation of miR164a,miR164a,increase in the accumulation of miR164a
same,plant growth,"Arabidopsis thaliana [1]; 0.1 μM synthetic peptide, after 3 weeks of growth vs water control, FIG. 2",increases the plant's growth significantly; also recorded: increases the plants' growth significantly
same,number of flowers,Arabidopsis thaliana [1]; [3],increases the plant's growth and number of flowers significantly
same,plant growth,Arabidopsis thaliana [1]; [3],increases the plant's growth and number of flowers significantly
"miPEP319a: Peptide encoded by miORF on pri-miR319a of A. thaliana, SEQ ID NO: 10, MNIHTYHHLLFPSLVFHQSSDVPNALSLHIHTYEYIIVVIDPFRITLAFR (listed as Arabidopsis thaliana)",plant growth,Arabidopsis thaliana [2],increases the plant's growth significantly
same,accumulation (relative expression) of AtmiR319a,AtmiR319a,increase in the accumulation of Atmir319a
